Test results as given in PubChem BioAssay (NCI).
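Compound exposure: 48 hours, 5 concentrations, 96-well plates. TGI is the concentration that stops growth completely.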

Columns and labels:
Experiment in all cases: inhibition of tumour cell growth, NCI panel, 48 h
SW-620 colon = system: SW-620 colon
DU-145 prostate = system: DU-145 prostate
MOLT-4 leukemia = system: MOLT-4 leukemia
HT29 colon = system: HT29 colon
OVCAR-3 ovarian = system: OVCAR-3 ovarian
HCC-2998 colon = system: HCC-2998 colon
MALME-3M melanoma = system: MALME-3M melanoma
CAKI-1 renal = system: CAKI-1 renal
K-562 leukemia = system: K-562 leukemia
SK-MEL-28 melanoma = system: SK-MEL-28 melanoma

Measured: TGI

CCNC(=O)C1CCCN1C(=O)C(CCCN=C(N)N)NC(=O)C(CC(C)C)NC(=O)C(Cc1c[nH]c2ccccc12)NC(=O)C(Cc1ccc(O)cc1)NC(=O)C(CO)NC(=O)C(Cc1c[nH]c2ccccc12)NC(=O)C(Cc1cnc[nH]1)NC(=O)C1CCC(=O)N1 (stereo not drawn)
not listed: SK-MEL-28 melanoma
> 100 µM: all other assays above

O=C1C=CC(=O)c2c(O)c(NCCc3ccc(O)cc3)c(Cl)c(O)c21
not listed: SK-MEL-28 melanoma
> 10 µM: all other assays above

Cc1c2ncccc2cc2oc3ccccc3c(=O)c12
23.5 µM: MOLT-4 leukemia
> 100 µM: all other assays above

CC1(CNCc2ccccc2)CC(CCc2ccccc2)N(C(=O)c2ccc([N+](=O)[O-])cc2)C1Cc1ccc(O)cc1 (stereo not drawn)
28.5 µM: DU-145 prostate
33.6 µM: MALME-3M melanoma
27.1 µM: HCC-2998 colon
86 µM: SW-620 colon
24.6 µM: OVCAR-3 ovarian
28.1 µM: CAKI-1 renal
22 µM: HT29 colon
> 100 µM: all other assays above

O=c1oc2cc(O)ccc2c(O)c1C(c1ccc(C(c2c(O)c3ccc(O)cc3oc2=O)c2c(O)c3ccc(O)cc3oc2=O)cc1)c1c(O)c2ccc(O)cc2oc1=O
> 100 µM: all assays above

Cc1nc(C)c(Cc2ccccc2)o1
> 100 µM: all assays above

C=c1c(OC)c(OC)c(O)c2c1=c1cc([N+](=O)[O-])cc(OC)c1=N2
> 100 µM: all assays above

CCC(C)C(=O)OC1CC2(C)C(c3ccoc3)OC(=O)CC23OC2(C)OC34C(OC(=O)C(C)C)C3(O)C(OC(=O)C5(C)OC5C)C5(C)CC3(O)C(C)(C5CC(=O)OC)C14O2 (stereo not drawn)
65.8 µM: MOLT-4 leukemia
not listed: OVCAR-3 ovarian
> 100 µM: all other assays above

CNC(=O)N(CCC#N)[C@H]1CCCC[C@@H]1N(C(=O)NC)c1ccccc1
> 100 µM: all assays above

COc1ccc2cc(NC(=O)N/N=C\c3ccc(Cl)cc3)ccc2c1
> 100 µM: all assays above

O=C(Nc1ccccc1C(=O)NCCCO)/C(=C/c1ccccc1O)NC(=O)c1ccccc1
> 100 µM: all assays above

COC(=O)C1=Nc2c(C)nn(-c3ccccc3)c2N=C(c2ccc([N+](=O)[O-])cc2)C1
> 10 µM: all assays above

Brc1ccc2c(-c3csc(-c4c[nH]c5cc(Br)ccc45)n3)c[nH]c2c1
66.5 µM: SW-620 colon
29.2 µM: HT29 colon
47.3 µM: DU-145 prostate
> 62.8 µM: MOLT-4 leukemia
> 43.8 µM: K-562 leukemia
> 100 µM: all other assays above

COc1ccc(-c2c(C#N)c(N)nc3c2CCS(=O)(=O)c2ccccc2-3)cc1
not listed: MOLT-4 leukemia | OVCAR-3 ovarian
> 100 µM: all other assays above

CSc1nc2c(c(=O)n1C)N=C(c1ccccc1)[C@H](C(CC(=O)c1ccccc1)c1ccccc1)C(c1ccccc1)N2 (stereo partly drawn)
> 100 µM: all assays above

CN(C)S(=O)(=O)Nc1nnc(S(N)(=O)=O)s1
> 100 µM: all assays above

CCN1CCC(O)(C(C(=O)O)c2ccccc2)CC1 (stereo not drawn)
not listed: MOLT-4 leukemia
> 100 µM: all other assays above

Cc1cn([C@@H]2C[C@H]2CO)c(=O)[nH]c1=O
not listed: OVCAR-3 ovarian
> 100 µM: all other assays above
